According to patent publication US11396531B2, “Antimicrobial peptides comprising epsilon lysine residues” (priority 2016, dated 2022):
≈ marks a conversion by molar mass, not a printed value. Where two headings read alike, the source gives them in different places. No end group written: not given here.

How the values were obtained:
red blood cells = settings: cited from earlier work
[1] = test system: a number of micro-organisms; settings: cited from earlier work
[2] = test system: Carbapenam-resistant Enterobacter strains (CRE); assay: microbe, parasite or virus in culture
Description: (§1) MIC of cationic polymers and polypeptide were tested in accordance with the Clinical and Laboratory Standards Institute (CLSI) guidelines against a panel of antibiotic-susceptible/-resistant bacteria, yeasts and fungal strains. Bacterial and yeast strains were cultured on tryptic soy agar (TSA) and Sabaroud dextrose agar (SDA) plates (Neogen Corporation, MI, USA) overnight respectively. Inocula in Mueller-Hinton broth (MHB) for bacteria and SD broth for C. albicans (Beckton Dickinson, MD, USA) were prepared at 0.5 McFarland. The suspensions were then diluted to a final concentration of 10^5 CFU/ml in a 96-well microtitre plate (SPL Life Sciences Co., Ltd, Korea). […] The antimicrobial activities were compared with topical antiseptic agents, BAK and CHX. A similar protocol was used to determine the MIC of εPL against antibiotic-resistant pathogens. MIC of the polymers and polypeptides against Fusarium strains was determined in full strength RPMI-1640 buffer. Fungal spores were recovered from a 5-day old culture on a potato dextrose agar and diluted to a concentration of 10^5 spores/ml in 0.9% saline solution. A further 50-fold dilution was done in RPMI-1640 buffer and 100 μl of the inoculum was added to 96 well plates containing an equal volume of test peptides at 2-fold serial dilutions. 200 μl of inoculum without any additives and buffer alone served as positive and negative controls, respectively. The plate was then incubated at 30° C. for 48 h. The absorbance value was measured at 600 nm as before and the lowest concentration of the peptide which inhibited 90% growth was reported. All MIC determinations were performed in duplicates.
(§2) MICs of polymers/antibiotics were determined using the microdilution method in 96 well microtitre plates (SPL Life Sciences Co., Ltd, Korea), following the guidelines of Clinical and Laboratory Standards Institute (CLSI) document M100-S18. Briefly, polymers (1-512 μg/ml) or antibiotics were dissolved in appropriate media (Mueller Hinton broth, MHB for bacteria; Sabaroud's Dextrose (SD) broth for yeasts and RPMI buffer for Fusarium strains) and 100 μl of this was then mixed with an equal volume of microbial inoculum (OD600=˜0.08) in the same media and shaken in a closed incubator.

A. baumannii = assay: microbe, parasite or virus in culture
Description: as §1, §2

E. cloacae complex = assay: microbe, parasite or virus in culture
Description: as §1, §2

E. coli = assay: microbe, parasite or virus in culture; format: cell-based, Escherichia coli
Description: as §1, with “Korea). Polymers and polypeptides were added to the inoculum in 2-fold serial dilutions to give a range of concentrations from 2-1024 μg/ml.” for “Korea).”
as §2

S. aureus = assay: microbe, parasite or virus in culture; format: cell-based, Staphylococcus aureus
Description: as §1, with “Korea). Polymers and polypeptides were added to the inoculum in 2-fold serial dilutions to give a range of concentrations from 2-1024 μg/ml.” for “Korea).”
as §2

K. pneumoniae = assay: microbe, parasite or virus in culture; format: cell-based, Klebsiella pneumoniae
Description: as §1, with “Korea). Polymers and polypeptides were added to the inoculum in 2-fold serial dilutions to give a range of concentrations from 2-1024 μg/ml.” for “Korea).”
as §2

P. aeruginosa = format: cell-based, Pseudomonas aeruginosa; settings: P. aeruginosa (n = 22)
Description: as §1, with “Korea). Polymers and polypeptides were added to the inoculum in 2-fold serial dilutions to give a range of concentrations from 2-1024 μg/ml.” for “Korea).”
MICs of polymers/antibiotics were determined using the microdilution method in 96 well microtitre plates (SPL Life Sciences Co., Ltd, Korea), following the guidelines of Clinical and Laboratory Standards Institute (CLSI) document M100-S18. […]

MRSA = format: cell-based, Staphylococcus aureus; settings: MRSA (n = 9)
Description: as §1, with “Korea). Polymers and polypeptides were added to the inoculum in 2-fold serial dilutions to give a range of concentrations from 2-1024 μg/ml.” for “Korea).”
as §2

[3] = test system: T-cell lymphomas (HuT78, MJ, HH) and B-cell lymphomas (Ly-4 and Ly-18); assay: Anticancer properties of hypercharged peptides (MTS); format: cell-based, human; settings: 62.5-500 μg/ml
Description: The hyper-charged peptides were screened for their anticancer properties using cell lines derived from patients with various forms of cutaneous lymphomas, including T-cell lymphomas (HuT78, MJ, HH) and B-cell lymphomas (Ly-4 and Ly-18). The relative cytotoxicity of these peptides was also assessed in healthy primary peripheral blood lymphocyte (PBL) T-cells. Cytotoxicity was measured as the mitochondrial function by metabolic reduction of MTS.

[4] = test system: Vancomycin-resistant Enterococcus (VRE)
Description: as §1, §2

C. albicans = C. albicans (n = 5)
Description: as §1, §2

[5] = test system: primary human dermal fibroblasts (HDFs); assay: MTS cytotoxicity assay
Description: MTS ((3-(4,5-dimethylthiazol-2-yl)-5-(3-carboxymethoxyphenyl)-2-(4-sulfophenyl)-2H-tetrazolium)) assay and high content analysis (HCA) were performed to elucidate the effect of various polymers on metabolic activity and morphological parameters of cultured human dermal fibroblasts (hDF), respectively as described previously. The antineoplastic agent, nocodazole (5 μg/ml), served as the […] control whereas cells treated with PBS served as positive control. The average values from three independent triplicate experiments are reported. Cells were cultured in 96-well plates and scanned (16 randomly selected fields/well) using an automated microscope IN Cell Analyzer 2200 (GE Healthcare). The multi-parametric cytotoxicity bio-application module of the IN Cell Investigator software (GE Healthcare) was used in quantitative estimations and morphotypic analysis of acquired images, which were automatically converted into color-coded heatmaps using Spotrfire® software.
Human dermal fibroblast cells were seeded in 96-well plates (2×10^3 cells/well) and incubated for 24 h at 37° C. and 5% CO2. Cells were then treated with various concentrations of polymers or peptides (62.5 μg/ml-1 mg/ml. At the end of the treatment period (after 24 h), 20 or 50 μl of MTS tetrazolium solution was added into 96-well or 12-well plates and further incubated for 2 h at 37° C. Subsequently, the absorbance was measured at 490 nm using a microplate reader (Infinite M200 Pro, Tecan, Switzerland) and the relative cell viability was calculated. Each treatment was performed in two triplicates and reported.
The cytotoxicity of peptides and polymers were determined using CellTier 96® Aqueous One solution cell proliferation assay kit according to the manufacturer's instruction (Promega Corporation, Madison, Wis.). This assay evaluates mitochondrial function by measuring ability of viable cells to reduce MTS ((3-(4,5-dimethylthiazol-2-yl)-5-(3-carboxymethoxyphenyl)-2-(4-sulfophenyl)-2H-tetrazolium)) into a quantifiable […] formazan product. HDFs were seeded in 96-well plates (2×10^3 cells/well) and incubated for 24 h at 37° C. and 5% CO2. Cells were then treated with a concentrated stock solution of polymers (final concentration 62.5-2000 μg/ml in the well) or peptides (final concentration 4-1000 μg/ml in the well). After 24 h, 20 μl of MTS tetrazolium solution was added into 96-well well plates and further incubated for 2 h at 37° C. Subsequently, the absorbance was measured at 490 nm using a microplate reader (Infinite M200 Pro, Tecan, Switzerland) and the relative cell viability was calculated relative to untreated control (10 mM PBS, pH 7.0). Each treatment was performed in two triplicates and reported.

[6] = at 5 × 10^5 CFU/mL, reference 7
[7] = at 5 × 10^5 CFU/mL, reference 5

Molecule: GIGAVLKVLTTGLPALISWIKRKRQQ [listing 1 of 2 here]
- Haemolytic activity (red blood cells; at 2 μM, reference 4): 100% at 2 μM
- MIC (range against a number of micro-organisms) ([1]; at 1 - 4 × 10^5 CFU/mL, reference 4): 0.1 - 2 μM at 1 -

Molecule: GIGAVLKVLTTGLCALISWIKRKRQQ (ends and bridges not checked)
- Haemolytic activity (red blood cells; at 2.5 μM, reference 8): 50% at 2.5 μM

Molecule: NC[C@H]1O[C@H](O[C@H]2[C@H](O)[C@@H](O[C@H]3O[C@H](CO)[C@@H](O)[C@H](N)[C@H]3O)[C@H](N)C[C@@H]2N)[C@H](N)C[C@@H]1O [Tobramycin]
- MIC ([2]; Enterobacter): 800 to 50000 µg/mL (≈ 1710 to 107000 µM)
- MIC (A. baumannii; Acinetobacter baumannii): 800 to 50000 µg/mL (≈ 1710 to 107000 µM)
- MIC (E. cloacae complex; Enterobacter cloacae): 1560 to 100000 µg/mL (≈ 3340 to 214000 µM)
- MIC (E. coli; Escherichia coli, E. coli (n = 8), range over strains, read-out: MIC): 195 to 100000 µg/mL (≈ 417 to 214000 µM)
- MIC (S. aureus; Staphylococcus aureus, S. aureus (n = 9), read-out: MIC): 500 to 1000 µg/mL (≈ 1070 to 2140 µM)
- MIC (K. pneumoniae; Klebsiella pneumoniae, K. pneumoniae (n = 8), range over strains, read-out: MIC): 195 to 100000 µg/mL (≈ 417 to 214000 µM)

Molecule: GIGAVLKVLTTGLPALISWIKRKRQQ [listing 2 of 2 here]
- Haemolytic activity (red blood cells; reference 9, result in words): Loss of peptide
- MIC ([1]; reference 9, result in words): Loss of peptide

Molecule: N=C(N)NCCC[C@@H](NC(=O)[C@@H](N)CCCCNC(=O)[C@@H](CCCNC(=N)N)NC(=O)[C@@H](N)CCCCNC(=O)[C@@H](CCCNC(=N)N)NC(=O)[C@@H](N)CCCCNC(=O)[C@@H](CCCNC(=N)N)NC(=O)[C@@H](N)CCCCNC(=O)[C@@H](CCCNC(=N)N)NC(=O)[C@@H](N)CCCCNC(=O)[C@@H](CCCNC(=N)N)NC(=O)[C@@H](N)CCCCN)C(=O)O [HC4, KrKrKrKrKrKr]
- MIC ([2]; CRE strains (n = 4)): 64 to 128 µg/mL
- MIC (A. baumannii; A. baumanii (n = 3)): 16 to 32 µg/mL
- MIC (E. cloacae complex; E. clocae complex (n = 4)): 64 to 128 µg/mL
- MIC (E. coli; E. coli (n = 3)): 16 µg/mL (≈ 9.28 µM)
- MIC (S. aureus; S. aureus (n = 6)): 32 µg/mL (≈ 18.6 µM)
- MIC (P. aeruginosa): 16 to 64 µg/mL
- MIC (MRSA): 16 to 64 µg/mL
- MIC (K. pneumoniae; K. pneumonia (n = 4)): 16 to 128 µg/mL
- cell killing in lymphoma cell lines [3]: varying degrees of cell killing
- MIC ([4]; VRE (n = 3)): 16 µg/mL (≈ 9.28 µM)
- MIC (C. albicans): 16 to 32 µg/mL

Molecule: GIGAVKKVLTTGKPALISWKKRKRQQ (not fully specified (residues 6, 13, 20); ends and bridges not checked; also: peptoid residue at 6, 13, 20 (identity not given here))
- Haemolytic activity (red blood cells; at 100 μM, reference 6): <10% at 100 μM
- MIC (range against a number of micro-organisms) ([1]; at 1 × 10^6 CFU/mL, reference 6): 2 - 8 μM at

Molecule: CGIGAVLKVLTTGLPALISWIKRKRQQC [Modified peptide: CGIGAVLKVLTTGLPALISWIKRKRQQC (cyclised)] (also: cyclised, mode not given here)
- Haemolytic activity (red blood cells; at 10 μM, reference 7): ~50% at 10 μM
- MIC (range against a number of micro-organisms) [1, 6]: 0.8 - 10 μM at

Molecule: GIGAVLKVLTTGLPALISWIKRKRQQ-NH2 [Unmodified parent peptide: GIGAVLKVLTTGLPALISWIKRKRQQ-NH2]
- Haemolytic activity (red blood cells; at <10 μM, reference 5): 100% at <10 μM
- MIC (range against a number of micro-organisms) [1, 7]: 0.3 - 20 μM at

Molecule: GIGAVLKVLTTGLPALISWIKRKRQQ-NH2 [Modified peptide: GIGAVLKVLTTGLPALISWIKRKRQQ-NH2]
- Haemolytic activity (red blood cells; at 50 μM, reference 5): <25% at 50 μM
- MIC (range against a number of micro-organisms) [1, 7]: 0.8 - 12 μM at

Molecule: CC[C@H](C)[C@H](NC(=O)[C@H](CO)NC(=O)[C@H](CCCCN)NC(=O)[C@H](CC(C)C)NC(=O)[C@H](CCCCN)NC(=O)[C@@H](N)CC(C)C)C(=O)N[C@H](C(=O)N[C@@H](CO)C(=O)N[C@@H](Cc1c[nH]c2ccccc12)C(=O)N[C@@H](C)C(=O)N[C@@H](CCCCN)C(=O)N[C@@H](CCCCN)C(=O)N[C@H](C(=O)N[C@@H](CC(C)C)C(N)=O)C(C)C)C(C)C [Mastoparan B, LKLKSIVSWAKKVL]
- MIC50 ([2]; CRE (n = 19), 50% of strains susceptible, Table 7): (MIC50 = 4) μg/ml
- MIC90 (A. baumannii; A. baumanii (n = 10), 90% of strains susceptible, Table 7): (MIC90 = 2) μg/ml
- Peptide concentration required to impart cytotoxic effect ([5]; MTS assay, primary human fibroblasts): exceeded 62.5 μg/ml
- Cytotoxicity for HDFs ([5]; Table 7): 125 µg/mL
- MIC90 ([4]; VRE (n = 21), 90% of strains susceptible, Table 7): (MIC90 = 4)^1 μg/ml

Molecule: CGIGAVLKVLTTGLPALISWIKRKRQQC [Unmodified parent peptide: CGIGAVLKVLTTGLPALISWIKRKRQQC (lin]
- Haemolytic activity (red blood cells; at 10 μM, reference 7): Complete
- MIC (range against a number of micro-organisms) [1, 6]: 2 - 32 μM at
